ChEMBL document CHEMBL4680116, “Development of benzimidazole-based derivatives as antimicrobial agents and their synergistic effect with colistin against gram-negative bacteria” (Eur J Med Chem, 2020)
≈ marks a conversion by molar mass, not a printed value.

Tests used:
Escherichia coli [1] = test: Antimicrobial activity against Escherichia coli JW55031 TolC mutant assessed as reduction in microbial growth incubated for 18 to 20 hrs by broth microdilution method
Escherichia coli [2] = test: Antibacterial activity against Escherichia coli ATCC 25922 incubated for 18 to 20 hrs by broth microdilution method; assay type: functional; details: time 18-20 hrs
Escherichia coli [3] = test: Synergistic antibacterial activity against Escherichia coli ATCC 25922 in presence of 0.25 times MIC of colistin incubated for 18 to 20 hrs by broth microdilution method; assay type: functional; details: time 18-20 hrs
Klebsiella pneumoniae [4] = test: Antibacterial activity against Klebsiella pneumoniae ATCC 1706 incubated for 18 to 20 hrs by broth microdilution method; assay type: functional; details: time 18-20 hrs
Escherichia coli [5] = test: Antibacterial activity against wild type Escherichia coli BW25113 incubated for 18 to 20 hrs by broth microdilution method; assay type: functional; details: time 18-20 hrs
Escherichia coli [6] = test: Synergistic antibacterial activity against wild type Escherichia coli BW25113 in presence of 0.25 times MIC of colistin incubated for 18 to 20 hrs by broth microdilution method; assay type: functional; details: time 18-20 hrs
Klebsiella pneumoniae [7] = test: Synergistic antibacterial activity against Klebsiella pneumoniae ATCC 1706 in presence of 0.25 times MIC of colistin incubated for 18 to 20 hrs by broth microdilution method; assay type: functional; details: time 18-20 hrs
Acinetobacter baumannii [8] = test: Antibacterial activity against Acinetobacter baumannii ATCC 19606 incubated for 18 to 20 hrs by broth microdilution method; assay type: functional; details: time 18-20 hrs
Acinetobacter baumannii [9] = test: Synergistic antibacterial activity against Acinetobacter baumannii ATCC 19606 in presence of 0.25 times MIC of colistin incubated for 18 to 20 hrs by broth microdilution method; assay type: functional; details: time 18-20 hrs
Pseudomonas aeruginosa [10] = test: Antibacterial activity against Pseudomonas aeruginosa ATCC 15442 incubated for 18 to 20 hrs by broth microdilution method; assay type: functional; details: time 18-20 hrs
Pseudomonas aeruginosa [11] = test: Synergistic antibacterial activity against Pseudomonas aeruginosa ATCC 15442 in presence of 0.25 times MIC of colistin incubated for 18 to 20 hrs by broth microdilution method; assay type: functional; details: time 18-20 hrs
Caco-2 = test: Cytotoxicity against human Caco-2 cells assessed as reduction in cell viability incubated for 2 hrs by MTS assay; assay type: cell-based; details: caco-2, 2 h
Vero = test: Cytotoxicity against African green monkey Vero cells assessed as reduction in cell viability incubated for 2 hrs by MTS assay; assay type: cell-based; details: chlorocebus sabaeus

`COc1ccc(-c2nc3ccccc3n2Cc2ccc(C)cc2)cc1` gave an MIC (Escherichia coli [1]) greater than 128 µg/mL.

For `Cc1ccc(Cn2c(-c3ccccc3)nc3ccccc32)cc1`, the MIC (Escherichia coli [1]) was 8 µg/mL.

`c1ccc(Cn2c(-c3ccccc3)nc3ccccc32)cc1` was tested, and the MIC (Escherichia coli [1]) was 16 µg/mL.

`CC(=O)Nc1cccc(-c2nc3ccccc3n2Cc2ccc(Cl)cc2)c1` gave an MIC (Escherichia coli [1]) greater than 128 µg/mL.

`CCCCCCCCCC(=O)N[C@@H](Cc1c[nH]c2ccccc12)C(=O)N[C@H](CC(N)=O)C(=O)N[C@@H](CC(=O)O)C(=O)N[C@@H]1C(=O)NCC(=O)N[C@@H](CCCN)C(=O)N[C@@H](CC(=O)O)C(=O)N[C@H](C)C(=O)N[C@@H](CC(=O)O)C(=O)NCC(=O)N[C@H](CO)C(=O)N[C@@H]([C@H](C)CC(=O)O)C(=O)N[C@@H](CC(=O)c2ccccc2N)C(=O)O[C@@H]1C` showed an MIC (Escherichia coli [2]) greater than 128 µg/mL, an MIC (Escherichia coli [3]) greater than 128 µg/mL and an MIC (Klebsiella pneumoniae [4]) greater than 128 µg/mL. It also gave an MIC (Escherichia coli [5]) greater than 128 µg/mL, an MIC (Escherichia coli [6]) greater than 128 µg/mL and an MIC (Klebsiella pneumoniae [7]) greater than 128 µg/mL. For the same molecule, the MIC (Acinetobacter baumannii [8]) was greater than 128 µg/mL, the MIC (Acinetobacter baumannii [9]) was greater than 128 µg/mL and the MIC (Pseudomonas aeruginosa [10]) was greater than 128 µg/mL. It also gave an MIC (Pseudomonas aeruginosa [11]) greater than 128 µg/mL.

In the case of `CS(=O)(=O)Nc1cccc(-c2nc3ccccc3n2CC2CCCCC2)c1`, the MIC (Escherichia coli [1]) is reported as 16 µg/mL.

`Cc1ccc(Cn2c(-c3cccc(C#N)c3)nc3ccccc32)cc1` gave an MIC (Escherichia coli [1]) of 16 µg/mL.

`CS(=O)(=O)Nc1cccc(-c2nc3ccccc3n2Cc2ccc(Cl)cc2)c1` was tested, and the MIC (Escherichia coli [1]) was 8 µg/mL.

With `CC(=O)Nc1cccc(-c2nc3ccccc3n2Cc2ccc(C)cc2)c1` the MIC (Escherichia coli [1]) was greater than 128 µg/mL.

`CS(=O)(=O)Nc1cccc(-c2nc3ccccc3n2Cc2ccc(C#N)cc2)c1` showed an MIC (Escherichia coli [1]) of 64 µg/mL.

For `CS(=O)(=O)Nc1cccc(-c2nc3ccccc3n2Cc2ccccc2)c1`, the MIC (Escherichia coli [1]) was 16 µg/mL.

Work on `CS(=O)(=O)Nc1cccc(-c2nc3ccccc3n2Cc2ccc(Cl)cc2Cl)c1` yielded an MIC (Escherichia coli [1]) of 8 µg/mL.

Work on `Cc1ccc(Cn2c(-c3cccc(C(F)(F)F)c3)nc3ccccc32)cc1` yielded an MIC (Escherichia coli [1]) greater than 128 µg/mL.

`Cc1ccc(Cn2c(-c3cccc([N+](=O)[O-])c3)nc3ccccc32)cc1` showed an MIC (Escherichia coli [1]) greater than 128 µg/mL.

`Cc1ccc(Cn2c(-c3ccc(C(F)(F)F)cc3)nc3ccccc32)cc1` showed an MIC (Escherichia coli [1]) of 128 µg/mL.

In the case of `CS(=O)(=O)Nc1cccc(-c2nc3ccccc3n2Cc2cccc(F)c2)c1`, the MIC (Escherichia coli [1]) is reported as 64 µg/mL.

In the case of `CS(=O)(=O)Nc1cccc(-c2nc3ccccc3n2Cc2ccc(Br)cc2)c1`, the MIC (Escherichia coli [1]) is reported as 4 µg/mL.

`Cc1ccc(Cn2c(-c3cccc(N)c3)nc3ccccc32)cc1` was tested, and the MIC (Escherichia coli [1]) was 4 µg/mL.

Molecule `Cc1ccc(Cn2c(-c3ccc(Cl)cc3)nc3ccccc32)cc1` has an MIC (Escherichia coli [1]) greater than 128 µg/mL.

`CS(=O)(=O)Nc1cccc(-c2nc3ccccc3n2Cc2cccc(C#N)c2)c1` gave an MIC (Escherichia coli [1]) greater than 128 µg/mL.

`Cc1ccc(Cn2c(-c3ccc(OC(F)(F)F)cc3)nc3ccccc32)cc1` was tested, and the MIC (Escherichia coli [1]) was greater than 128 µg/mL.

`Nc1cccc(-c2nc3ccccc3n2Cc2ccc(C(F)(F)F)cc2)c1` showed an MIC (Escherichia coli [1]) of 8 µg/mL.

With `CS(=O)(=O)Nc1cccc(-c2nc3ccccc3n2Cc2ccc(OC(F)(F)F)cc2)c1` the MIC (Escherichia coli [1]) was greater than 128 µg/mL.

`FC(F)(F)c1ccc(Cn2c(-c3ccccc3)nc3ccccc32)cc1` showed an MIC (Escherichia coli [1]) of 8 µg/mL.

For `CS(=O)(=O)Nc1cccc(-c2nc3ccccc3n2Cc2ccc(F)cc2)c1`, the MIC (Escherichia coli [1]) was 32 µg/mL.

`CS(=O)(=O)Nc1cccc(-c2nc3ccccc3n2Cc2cccc3ccccc23)c1` showed an MIC (Escherichia coli [1]) greater than 128 µg/mL.

`Cc1ccc(Cn2c(-c3ccc(C#N)cc3)nc3ccccc32)cc1` showed an MIC (Escherichia coli [1]) greater than 128 µg/mL.

Molecule `Cc1cccc(Cn2c(-c3cccc(NS(C)(=O)=O)c3)nc3ccccc32)c1` has an MIC (Escherichia coli [1]) of 16 µg/mL.

For `Cc1ccc(Cn2c(-c3cccc(NS(C)(=O)=O)c3)nc3ccccc32)cc1`, the MIC (Escherichia coli [1]) was 2 µg/mL, the MIC (Escherichia coli [2]) was greater than 128 µg/mL and the MIC (Escherichia coli [3]) was 16 µg/mL. For the same molecule, the MIC (Klebsiella pneumoniae [4]) was greater than 128 µg/mL, the MIC (Escherichia coli [5]) was greater than 128 µg/mL and the MIC (Escherichia coli [6]) was 16 µg/mL. The MIC (Klebsiella pneumoniae [7]) was 8 µg/mL, the MIC (Acinetobacter baumannii [8]) was greater than 128 µg/mL and the MIC (Acinetobacter baumannii [9]) was 8 µg/mL. For the same molecule, the MIC (Pseudomonas aeruginosa [10]) was greater than 128 µg/mL, the MIC (Pseudomonas aeruginosa [11]) was 16 µg/mL and the Activity (Caco-2) was “Non-Toxic”. For the same molecule, the Activity (Vero) was “Non-Toxic”.

`CS(=O)(=O)Nc1cccc(-c2nc3ccccc3n2Cc2ccc(Cl)c(Cl)c2)c1` showed an MIC (Escherichia coli [1]) of 8 µg/mL.

With `Nc1cccc(-c2nc3ccccc3n2Cc2ccc(Cl)c(Cl)c2)c1` the MIC (Escherichia coli [1]) was 4 µg/mL.

`CS(=O)(=O)Nc1cccc(-c2nc3ccccc3n2Cc2cccc(Cl)c2)c1` showed an MIC (Escherichia coli [1]) of 16 µg/mL.

`CS(=O)(=O)Nc1cccc(-c2nc3ccccc3n2Cc2ccc(C(F)(F)F)cc2)c1` showed an MIC (Escherichia coli [1]) of 16 µg/mL.

Work on `Cc1ccc(Cn2c(-c3ccc(NS(C)(=O)=O)cc3)nc3ccccc32)cc1` yielded an MIC (Escherichia coli [1]) greater than 128 µg/mL.

With `CC[C@H]1OC(=O)[C@H](C)[C@@H](O[C@H]2C[C@@](C)(OC)[C@@H](O)[C@H](C)O2)[C@H](C)[C@@H](O[C@@H]2O[C@H](C)C[C@H](N(C)C)[C@H]2O)[C@](C)(O)C[C@@H](C)C(=O)[C@H](C)[C@@H](O)[C@]1(C)O` [ERYTHROMYCIN] the MIC (Escherichia coli [2]) was 16 µg/mL (≈ 21.8 µM), the MIC (Escherichia coli [3]) was 1 µg/mL and the MIC (Klebsiella pneumoniae [4]) was 64 µg/mL (≈ 87.2 µM). The MIC (Escherichia coli [5]) was 16 µg/mL (≈ 21.8 µM), the MIC (Escherichia coli [6]) was 1 µg/mL and the MIC (Klebsiella pneumoniae [7]) was 2 µg/mL. For the same molecule, the MIC (Acinetobacter baumannii [8]) was 16 µg/mL (≈ 21.8 µM), the MIC (Acinetobacter baumannii [9]) was 0.5 µg/mL and the MIC (Pseudomonas aeruginosa [10]) was 64 µg/mL (≈ 87.2 µM). It also gave an MIC (Pseudomonas aeruginosa [11]) of 2 µg/mL.

`CC(=O)NC[C@H]1CN(c2ccc(N3CCOCC3)c(F)c2)C(=O)O1` [LINEZOLID] showed an MIC (Escherichia coli [1]) of 8 µg/mL, an MIC (Escherichia coli [2]) of 128 µg/mL (≈ 379 µM) and an MIC (Escherichia coli [3]) of 128 µg/mL. The MIC (Klebsiella pneumoniae [4]) was greater than 128 µg/mL, the MIC (Escherichia coli [5]) was 128 µg/mL (≈ 379 µM) and the MIC (Escherichia coli [6]) was 128 µg/mL. The MIC (Klebsiella pneumoniae [7]) was greater than 128 µg/mL, the MIC (Acinetobacter baumannii [8]) was greater than 128 µg/mL and the MIC (Acinetobacter baumannii [9]) was greater than 128 µg/mL. It also gave an MIC (Pseudomonas aeruginosa [10]) greater than 128 µg/mL and an MIC (Pseudomonas aeruginosa [11]) greater than 128 µg/mL.
